{"source": "patent US20230271950A1", "about": "“ANTIBACTERIAL PICOLINAMIDE COMPOUNDS” (University of Notre Dame Du Lac, priority 2020, published 2023)", "key": {"Fusobacterium nucleatum": {"tested_on": "Fusobacterium nucleatum", "experiment": "MIC against gut bacterium Fusobacterium nucleatum", "format": "cell-based", "conditions": "Fusobacterium nucleatum, Fusobacterium nucleatum strain HM-992; Table 7; read-out: MIC"}, "Eubacterium sp.": {"tested_on": "Eubacterium sp.", "experiment": "MIC against gut bacterium Eubacterium sp.", "format": "cell-based", "conditions": "Eubacterium, Eubacterium sp. strain HM-178; Table 7; read-out: MIC"}, "Veillonella sp. HM-49": {"tested_on": "Veillonella sp. HM-49", "experiment": "MIC against gut bacterium Veillonella sp.", "format": "cell-based", "conditions": "SP.HM49; Veillonella sp. strain HM-49; Table 7; read-out: MIC"}, "Bifidobacterium longum": {"tested_on": "Bifidobacterium longum", "experiment": "MIC against gut bacterium Bifidobacterium longum", "format": "cell-based", "conditions": "Bifidobacterium longum, Bifidobacterium longum strain HM-846; Table 7; read-out: MIC"}, "C. difficile": {"tested_on": "C. difficile", "experiment": "MIC by broth microdilution against C. difficile strains", "format": "cell-based, Clostridioides difficile", "conditions": "for MIC: Clostridioides difficile, read-out: MIC"}, "Bacteroides fragilis": {"tested_on": "Bacteroides fragilis", "experiment": "MIC against gut bacterium Bacteroides fragilis", "format": "cell-based", "conditions": "Bacteroides fragilis, Bacteroides fragilis strain HM-709; Table 7; read-out: MIC"}, "Lactobacillus gasseri": {"tested_on": "Lactobacillus gasseri", "experiment": "MIC against gut bacterium Lactobacillus gasseri", "format": "cell-based", "conditions": "Lactobacillus gasseri strain HM-644; Table 7; read-out: MIC"}, "HeLa cells": {"tested_on": "HeLa cells", "experiment": "XTT cytotoxicity assay with HeLa cells", "format": "cell-based", "conditions": "Homo sapiens, Table 6", "experimental": "XTT assay. Cytotoxicity assays were performed in triplicate against HeLa cells (ATCC CCL-2). The IC50 values were calculated by nonlinear regression with GraphPad Prism 5 (San Diego, Calif.).\nXTT assay. XTT assays were performed with HeLa cells (ATCC CCL-2) in triplicate, as previously described (Lancet 2008, 371, 1486). IC50 values were determined by nonlinear regression using GraphPad Prism 5 (San Diego, Calif.)."}, "MRSA (NRS70, NRS119)": {"tested_on": "MRSA (NRS70, NRS119)", "experiment": "MIC against MRSA strains", "format": "cell-based, Staphylococcus aureus", "conditions": "Staphylococcus aureus, MRSA NRS70; Table 7; read-out: MIC"}, "E. faecium NCTC7171": {"tested_on": "E. faecium NCTC7171", "experiment": "MIC against E. faecium", "format": "cell-based, Enterococcus faecium", "conditions": "Enterococcus faecium, NCTC7171; E. faecium NCTC 7171; Table 10, unit inferred; read-out: Activity (MIC) against E. faecium"}, "Lactobacillus reuteri": {"tested_on": "Lactobacillus reuteri", "experiment": "MIC against gut bacterium Lactobacillus reuteri", "format": "cell-based", "conditions": "Limosilactobacillus reuteri; Lactobacillus reuteri strain HM-102; Table 7; read-out: MIC"}, "S. aureus ATCC29213": {"tested_on": "S. aureus ATCC29213", "experiment": "MIC against MSSA", "format": "cell-based, Staphylococcus aureus", "conditions": "Staphylococcus aureus; MSSA ATCC 29213; Table 10, unit inferred; read-out: Activity (MIC) against S. aureus"}, "Corynebacterium spp.": {"tested_on": "Corynebacterium spp.", "experiment": "MIC against gut bacterium Corynebacterium spp.", "format": "cell-based", "conditions": "Corynebacterium, Corynebacterium spp. strain HM-784; Table 7"}}, "note": "Where two headings read alike, the source gives them in different places."}
{"smiles": "O=C(Nc1ncco1)c1cc(Oc2cccc(OC(F)(F)F)c2)ccn1", "note": "[Compound 108, N-(Oxazol-2-yl)-4-(3-(trifluoromethoxy)phenoxy)picolinamide]", "values": [{"measurement": "MIC", "setting": "Fusobacterium nucleatum", "result": 8, "unit": "µg/mL"}, {"measurement": "MIC", "setting": "Eubacterium sp.", "result": 8, "unit": "µg/mL"}, {"measurement": "MIC", "setting": "Veillonella sp. HM-49", "result": 16, "unit": "µg/mL"}, {"measurement": "MIC", "setting": "Bifidobacterium longum", "result": 16, "unit": "µg/mL"}, {"measurement": "MIC", "setting": "C. difficile; ATCC43255, C. difficile ATCC43255, Table 7", "result": 1, "unit": "µg/mL"}, {"measurement": "MIC", "setting": "C. difficile; ATCC43598, C. difficile ATCC43598, Table 7", "result": 0.5, "unit": "µg/mL"}, {"measurement": "MIC", "setting": "C. difficile; BAA1801, C. difficile BAA-1801, Table 7", "result": 0.25, "unit": "µg/mL"}, {"measurement": "MIC", "setting": "C. difficile; BAA1803, C. difficile BAA-1803, Table 7", "result": 0.5, "unit": "µg/mL"}, {"measurement": "MIC", "setting": "C. difficile; BAA1804, C. difficile BAA-1804, Table 7", "result": 0.25, "unit": "µg/mL"}, {"measurement": "MIC", "setting": "C. difficile; BAA1812, C. difficile BAA-1812, Table 7", "result": 1, "unit": "µg/mL"}, {"measurement": "MIC", "setting": "C. difficile; BAA1814, C. difficile BAA-1814, Table 7", "result": 0.25, "unit": "µg/mL"}, {"measurement": "MIC", "setting": "C. difficile; BAA1870, C. difficile BAA-1870, Table 7", "result": 0.5, "unit": "µg/mL"}, {"measurement": "MIC", "setting": "C. difficile; C. difficile 23691 (VR, vancomycin-resistant), Table 7", "result": 0.25, "unit": "µg/mL"}, {"measurement": "MIC", "setting": "C. difficile; C. difficile 23828 (FR, fidaxomicin-resistant), Table 7", "result": 1, "unit": "µg/mL"}, {"measurement": "MIC", "setting": "C. difficile; C. difficile 24531 (VR, vancomycin-resistant), Table 7", "result": 0.25, "unit": "µg/mL"}, {"measurement": "MIC", "setting": "C. difficile; C. difficile 24923 (VR, vancomycin-resistant), Table 7", "result": 0.25, "unit": "µg/mL"}, {"measurement": "MIC", "setting": "C. difficile; C. difficile 26675 (MR, metronidazole-resistant), Table 7", "result": 1, "unit": "µg/mL"}, {"measurement": "MIC", "setting": "C. difficile; C. difficile 27081 (FR, fidaxomicin-resistant), Table 7", "result": 0.25, "unit": "µg/mL"}, {"measurement": "MIC", "setting": "C. difficile; C. difficile 27173 (MR, metronidazole-resistant), Table 7", "result": 0.5, "unit": "µg/mL"}, {"measurement": "MIC", "setting": "C. difficile; C. difficile NR49292, Table 7", "result": 0.25, "unit": "µg/mL"}, {"measurement": "MIC", "setting": "C. difficile; C. difficile NR49294, Table 7", "result": 0.25, "unit": "µg/mL"}, {"measurement": "MIC", "setting": "C. difficile; C. difficile NR49302, Table 7", "result": 1, "unit": "µg/mL"}, {"measurement": "MIC", "setting": "C. difficile; C. difficile NR49305, Table 7", "result": 0.25, "unit": "µg/mL"}, {"measurement": "MIC", "setting": "C. difficile; C. difficile NR49310, Table 7", "result": 0.5, "unit": "µg/mL"}, {"measurement": "MIC", "setting": "C. difficile; C. difficile NR49318, Table 7", "result": 0.5, "unit": "µg/mL"}, {"measurement": "MIC", "setting": "C. difficile; C. difficile, Table 8", "result": 1, "unit": "µg/mL"}, {"measurement": "Selectivity", "setting": "C. difficile; MIC MRSA NRS70/MIC C. difficile ATCC43255, Table 7", "result": 64}, {"measurement": "Selectivity", "setting": "C. difficile; Table 8", "result": 64}, {"measurement": "MIC", "setting": "Bacteroides fragilis", "result": 8, "unit": "µg/mL"}, {"measurement": "MIC", "setting": "Lactobacillus gasseri", "result": "> 16", "unit": "µg/mL"}, {"measurement": "IC50", "setting": "HeLa cells", "result": "93.3 ± 1.7", "unit": "µg/mL"}, {"measurement": "MIC", "setting": "MRSA (NRS70, NRS119)", "result": 64, "unit": "µg/mL"}, {"measurement": "MIC", "setting": "E. faecium NCTC7171", "result": 64, "unit": "µg/mL"}, {"measurement": "MIC", "setting": "Lactobacillus reuteri", "result": 4, "unit": "µg/mL"}, {"measurement": "MIC", "setting": "S. aureus ATCC29213", "result": 64, "unit": "µg/mL"}, {"measurement": "MIC", "setting": "Corynebacterium spp.", "result": "> 16", "unit": "µg/mL"}]}
